Experimental data: US20140357633A1, “COMPOUNDS FOR INHIBITING THE INTERACTION OF BCL2 WITH BINDING PARTNERS” (NOVARTIS AG, priority 2011, published 2014)

How the values were obtained:
[1] = target: BCL-2 (binding to BAD peptide) (Homo sapiens, UniProt P10415); assay: SPR (Biacore) solution inhibition assay, BCL-2 binding to immobilized BAD peptide; details: biotinylated BAD peptide surface, 56 nM BCL-2, 25° C.; range = high and low IC50 values from multiple experiments; read-out: BCL2_SPR IC50 BAD
Outline: (§1)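 Compounds (6-point threefold series, 16 μM to 0.004 nM) preincubated 1 h with 56 nM BCL-2, then injected 60 s over biotinylated peptide captured on streptavidin chips at 25° C. Running buffer: 10 mM HEPES pH 7.4, 150 mM NaCl, 1.25 mM DTT, 3% DMSO, 0.05% polysorbate 20. % inhibition versus BCL-2-only binding gave IC50.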

[2] = target: BCL-2 (binding to BAK peptide) (Homo sapiens, UniProt P10415); assay: SPR (Biacore) solution inhibition assay, BCL-2 binding to immobilized BAK peptide; details: biotinylated BAK peptide surface, 56 nM BCL-2, 25° C.; range = high and low IC50 values from multiple experiments; read-out: BCL2_SPR IC50 BAK
Outline: as §1

Chain of BCL-2 (binding to BAD peptide) (P10415 whole entry): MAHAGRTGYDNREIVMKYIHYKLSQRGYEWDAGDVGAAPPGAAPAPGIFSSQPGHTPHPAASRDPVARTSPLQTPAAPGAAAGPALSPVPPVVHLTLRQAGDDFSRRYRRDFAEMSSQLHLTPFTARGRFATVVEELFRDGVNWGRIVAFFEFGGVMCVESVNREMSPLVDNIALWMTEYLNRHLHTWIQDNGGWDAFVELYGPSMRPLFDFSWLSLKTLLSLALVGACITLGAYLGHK
Chain of BCL-2 (binding to BAK peptide) (P10415 whole entry): as above

Structure (SMILES) | IC50 [1] [nM] | IC50 [2] [nM]
CCCCN(CCCC)C(=O)c1cc(C)n(-c2ccc(NC(=O)C(C)c3noc4ccccc34)cc2C(=O)N2Cc3ccccc3C[C@H]2CO)n1 (some centres unmarked) [Example 161] | 3070 to 3910 | 1330 to 1560
CCCCN(CCCC)C(=O)c1cc(C)n(-c2ccc(NC(=O)COc3ccc([N+](=O)[O-])cc3)cc2C(=O)N2Cc3ccccc3C[C@H]2CO)n1 [Example 21] | 2390 to 2670 | 1950 to 2170
CCCCN(CCCC)C(=O)c1cc(C)n(-c2ccc(NC(=O)c3cc(C)[nH]n3)cc2C(=O)N2Cc3ccccc3C[C@H]2CO)n1 [Example 109] | 477 to 528 | 505 to 525
CCCCN(CCCC)C(=O)c1cc(C)n(-c2ccc(NC(=O)c3cc(-c4ccccc4)nn3-c3ccc(F)cc3)cc2C(=O)N2Cc3ccccc3C[C@H]2CO)n1 [Example 120] | 726 to 732 | 494 to 559
CCCCC(CCCC)C(=O)c1cc(C)n(-c2ccc(NC(=O)COc3cccc4ccccc34)cc2C(=O)N2Cc3ccccc3C[C@H]2CO)n1 [Example 110] | 273 to 318 | 250 to 272
CCCCN(CCCC)C(=O)c1cc(C)n(-c2ccc(NC(=O)CC(=O)O)cc2C(=O)N2Cc3ccccc3C[C@H]2CO)n1 [Example 19] | 363 to 365 | 241 to 251
CCCCN(CCCC)C(=O)c1cc(C)n(-c2ccc(NC(=O)COc3ccc(OC)cc3)cc2C(=O)N2Cc3ccccc3C[C@H]2CO)n1 [Example 24] | 8620 to 11900 | 6420 to 8640
CCCCN(CCCC)C(=O)c1cc(C)n(-c2ccc(NC(=O)c3cn(C)nc3C(F)(F)F)cc2C(=O)N2Cc3ccccc3C[C@H]2CO)n1 [Example 155] | 778 to 972 | 729 to 935
CCCCN(CCCC)C(=O)c1cc(C)n(-c2ccc(NC(=O)c3ccccc3Nc3ccccc3[N+](=O)[O-])cc2C(=O)N2Cc3ccccc3C[C@H]2CO)n1 [Example 146] | 467 to 500 | 396 to 471
CCCCN(CCCC)C(=O)c1cc(C)n(-c2ccc(NC(=O)c3[nH]c4ccccc4c3-c3ccccc3)cc2C(=O)N2Cc3ccccc3C[C@H]2CO)n1 [Example 148] | 619 to 638 | 595 to 598
CCCCN(CCCC)C(=O)c1cc(C)n(-c2ccc(NC(=O)c3ccc(-c4ccc(OC)cc4)[nH]c3=O)cc2C(=O)N2Cc3ccccc3C[C@H]2CO)n1 [Example 156] | 1740 to 1800 | 1830 to 2380
CCCCN(CCCC)C(=O)c1cc(C)n(-c2ccc(NC(=O)c3cn4ccsc4n3)cc2C(=O)N2Cc3ccccc3C[C@H]2CO)n1 [Example 102] | 364 to 394 | 268
CCCCN(CCCC)C(=O)c1cc(C)n(-c2ccc(NC(=O)c3csc(N4CCOCC4)n3)cc2C(=O)N2Cc3ccccc3C[C@H]2CO)n1 [Example 122] | 317 to 325 | 237 to 257
CCCCN(CCCC)C(=O)c1cc(C)n(-c2ccc(NC(C)=O)cc2C(=O)N2Cc3ccccc3C[C@H]2CO)n1 [Example 13] | 776 to 791 | 462 to 478
CCCCN(CCCC)C(=O)c1cc(C)n(-c2ccc(NC(=O)c3cn4ccccc4n3)cc2C(=O)N2Cc3ccccc3C[C@H]2CO)n1 [Example 58] | 249 to 282 | 204 to 205
CCCCN(CCCC)C(=O)c1cc(C)n(-c2ccc(NC(=O)c3ccc(COC)o3)cc2C(=O)N2Cc3ccccc3C[C@H]2CO)n1 [Example 142] | 1130 to 1300 | 935 to 1120
CCCCN(CCCC)C(=O)c1cc(C)n(-c2ccc(NC(=O)CC3CCCCC3)cc2C(=O)N2Cc3ccccc3C[C@H]2CO)n1 [Example 28] | 264 to 296 | 291 to 325
CCCCN(CCCC)C(=O)c1cc(C)n(-c2ccc(NC(=O)Cc3ccc(F)cc3Cl)cc2C(=O)N2Cc3ccccc3C[C@H]2CO)n1 [Example 158] | 537 to 546 | 436 to 500
CCCCN(CCCC)C(=O)c1cc(C)n(-c2ccc(NC(=O)c3cccnc3Nc3cccc(C(F)(F)F)c3)cc2C(=O)N2Cc3ccccc3C[C@H]2CO)n1 [Example 150] | 431 to 444 | 597 to 598

Now those with a lower IC50 [1], led by results:

IC50 [1] [nM] | IC50 [2] [nM] | Structure (SMILES)
142 to 164 | 161 to 162 | CCCCN(CCCC)C(=O)c1cc(C)n(-c2ccc(NC(=O)c3cc4c(OC)c(OC)ccc4[nH]3)cc2C(=O)N2Cc3ccccc3C[C@H]2CO)n1 [Example 149]
48.9 to 52.7 | 43.1 to 46 | CCCCN(CCCC)C(=O)c1cc(C)n(-c2ccc(NC(=O)C3Oc4cc5ccccc5cc4O3)cc2C(=O)N2Cc3ccccc3C[C@H]2CO)n1 [Example 67]
30.3 to 53.6 | 27.5 to 44.8 | CCCCN(CCCC)C(=O)c1cc(C)n(-c2ccc(NC(=O)C(CC(=O)O)c3ccccc3)cc2C(=O)N2Cc3ccccc3C[C@H]2CO)n1 (stereo partly drawn) [Example 2, 4-((4-(3-(dibutylcarbamoyl)-5-methyl-1H-pyrazol-1-yl)-3-((S)-3-(hydroxymethyl)-1,2,3,4-tetrahydroisoquinoline-2-carbonyl)phenyl)amino)-4-oxo-3-phenylbutanoic acid]
155 to 158 | 122 to 126 | CCCCN(CCCC)C(=O)c1cc(C)n(-c2ccc(NC(=O)C3=CC(c4ccccc4)NC(=O)N3)cc2C(=O)N2Cc3ccccc3C[C@H]2CO)n1 (some centres unmarked) [Example 51]
143 to 166 | 106 to 124 | CCCCN(CCCC)C(=O)c1cc(C)n(-c2ccc(NC(=O)C(C)(C)CC(=O)O)cc2C(=O)N2Cc3ccccc3C[C@H]2CO)n1 [Example 39]
132 to 146 | 119 to 144 | CCCCN(CCCC)C(=O)c1cc(C)n(-c2ccc(NC(=O)C(C)(C)c3ccccc3)cc2C(=O)N2Cc3ccccc3C[C@H]2CO)n1 [Example 31]
114 to 119 | 89.4 to 94.3 | CCCCN(CCCC)C(=O)c1cc(C)n(-c2ccc(NC(=O)C(CCO)c3ccccc3)cc2C(=O)N2Cc3ccccc3C[C@H]2CO)n1 (some centres unmarked) [Example 105]
59.8 to 59.9 | 50.5 to 51.3 | CCCCN(CCCC)C(=O)c1cc(C)n(-c2ccc(NC(=O)Cc3cccc(Cl)c3)cc2C(=O)N2Cc3ccccc3C[C@H]2CO)n1 [Example 76]
61.9 to 66.8 | 58.5 to 70.9 | CCCCN(CCCC)C(=O)c1cc(C)n(-c2ccc(NC(=O)C(CC(=O)N3CCCC3)c3ccccc3)cc2C(=O)N2Cc3ccccc3C[C@H]2CO)n1 (some centres unmarked) [Example 27]
66.6 to 70 | 53.2 to 59 | CCCCN(CCCC)C(=O)c1cc(C)n(-c2ccc(NC(=O)Cc3cccc(F)c3)cc2C(=O)C2Cc3ccccc3C[C@H]2CO)n1 (some centres unmarked) [Example 75]
80.3 to 93.4 | 64.7 to 75.3 | CCCCN(CCCC)C(=O)c1cc(C)n(-c2ccc(NC(=O)Cc3ccc(O)cc3)cc2C(=O)N2Cc3ccccc3C[C@H]2CO)n1 [Example 157]
119 to 126 | 95.7 to 103 | CCCCN(CCCC)C(=O)c1cc(C)n(-c2ccc(NC(=O)CC(CC(=O)O)c3ccccc3)cc2C(=O)N2Cc3ccccc3C[C@H]2CO)n1 (some centres unmarked) [Example 16]
100 to 129 | 81 to 110 | CCCCN(CCCC)C(=O)c1cc(C)n(-c2ccc(NC(=O)C(CC(=O)NC)c3ccccc3)cc2C(=O)N2Cc3ccccc3C[C@H]2CO)n1 (some centres unmarked) [Example 55]
180 to 204 | 153 to 154 | CCCCN(CCCC)C(=O)c1cc(C)n(-c2ccc(NC(=O)C3CC(=O)N(c4ccc(OCC)cc4)C3)cc2C(=O)N2Cc3ccccc3C[C@H]2CO)n1 (some centres unmarked) [Example 115]
143 to 158 | 133 to 134 | CCCCN(CCCC)C(=O)c1cc(C)n(-c2ccc(NC(=O)Cc3cc(F)ccc3OC)cc2C(=O)N2Cc3ccccc3C[C@H]2CO)n1 [Example 70]
